From ChEMBL document CHEMBL5360581, “Discovery of a novel dual functional phenylpyrazole-styryl hybrid that induces apoptotic and autophagic cell death in bladder cancer cells” (Eur J Med Chem, 2023)
Activity calls are given as the source filed them. The calls are words filed in the database; no cut-off is given here.

How the values were obtained:
EJ-28 [1] = experiment: Antiproliferative activity against human EJ-28 cells assessed as reduction in cell viability at 20 uM measured for 72 hrs by MTT assay; format: functional, cell-based
EJ-28 [2] = experiment: Induction of apoptosis in human EJ-28 cells assessed as upregulation of Bak expression incubated for 24 hrs by Western blotting analysis; format: functional, cell-based
A549 = experiment: Antiproliferative activity against human A549 cells assessed as reduction in cell viability at 20 uM measured for 72 hrs by MTT assay; format: functional, cell-based
EJ-28 [3] = experiment: Induction of cell cycle arrest in human EJ-28 cells assessed as accumulation of cells at G2/M phase at 10 uM incubated for 48 hrs by propidium iodide staining based flow cytometry (reference value: 20%); format: functional
[4] = Selectivity index, ratio of IC50 for cytotoxicity against human NHDF cells to IC50 for cytotoxicity against human HT-1080 cells
EJ-28 [5] = experiment: Induction of autophagy in human EJ-28 cells assessed as upregulation of Atg12 expression at 5 to 12.5 uM incubated for 24 to 72 hrs by Western blot analysis; format: functional, cell-based; settings: dose 5-12.5 µM, time 24-72 hrs
[6] = Cytotoxicity against human NHDF cells assessed inhibition of cell growth incubated for 72 hrs by MTT assay; format: toxicity, cell-based
EJ-28 [7] = experiment: Induction of autophagy in human EJ-28 cells assessed as upregulation of Atg5 expression at 5 to 12.5 uM incubated for 24 to 72 hrs by Western blot analysis; format: functional, cell-based; settings: dose 5-12.5 µM, time 24-72 hrs
EJ-28 [8] = experiment: Induction of autophagy in human EJ-28 cells assessed as autophagic flux at 5 to 12.5 uM incubated for 36 to 48 hrs by flow cytometry analysis; format: functional, cell-based; settings: dose 5-12.5 µM, time 36-48 hrs
EJ-28 [9] = experiment: Induction of autophagy in human EJ-28 cells assessed as increase in green fluorescence intensity incubated for 24 hrs by flow cytometry analysis; format: functional, cell-based; settings: dose 5-12.5 µM
SW-620 [10] = experiment: Cytotoxicity against human SW620 cells assessed inhibition of cell growth incubated for 72 hrs by MTT assay; format: functional, cell-based; settings: SW-620, 72 h
EJ-28 [11] = experiment: Induction of apoptosis in human EJ-28 cells assessed as upregulation of cleaved bid expression incubated for 24 hrs by Western blotting analysis; format: functional, cell-based
[12] = Toxicity in Zebrafish embryo assessed as mortality at 12.5 to 50 uM administered for 4 hrs post fertilization and measured after 72 hours post fertilization; parameters: species or system Danio rerio; settings: in vivo, dose 12.5-50 µM
[13] = Toxicity in Zebrafish embryo assessed as delay in hatching at 12.5 to 50 uM administered for 4 hrs post fertilization and measured after 72 hours post fertilization; parameters: species or system Danio rerio; settings: in vivo, dose 12.5-50 µM
[14] = Selectivity index, ratio of IC50 for cytotoxicity against human NHDF cells to IC50 for cytotoxicity against human A549 cells; format: toxicity, cell-based; settings: NHDF cells and A549 cells, read-out: Ratio IC50
MCF7 [15] = experiment: Cytotoxicity against human MCF7 cells assessed inhibition of cell growth incubated for 72 hrs by MTT assay; format: functional, cell-based; settings: MCF7, 72 h
SW-620 [16] = experiment: Antiproliferative activity against human SW620 cells assessed as reduction in cell viability at 20 uM measured for 72 hrs by MTT assay; format: functional, cell-based
EJ-28 [17] = experiment: Cytotoxicity against human EJ-28 cells assessed inhibition of cell growth incubated for 72 hrs by MTT assay; format: functional, cell-based; settings: EJ-28, 72 h
HT-1080 = experiment: Cytotoxicity against human HT-1080 cells assessed inhibition of cell growth incubated for 72 hrs by MTT assay; format: functional, cell-based; settings: HT-1080, 72 h
EJ-28 [18] = experiment: Induction of autophagy in human EJ-28 cells assessed as increase in green fluorescence intensity at 5 to 12.5 uM incubated for 36 to 48 hrs by flow cytometry analysis; format: functional, cell-based; settings: dose 5-12.5 µM, time 36-48 hrs
EJ-28 [19] = experiment: Anticancer activity against human EJ-28 cells cultured as 3D spheroids at 2.5 to 20 uM measured upto 5 days by PI/Hoechst 33342 staining based fluorescence microscopic analysis; format: functional, cell-based; settings: dose 2.5-20 µM, time <= 5.0 day
EJ-28 [20] = experiment: Induction of apoptosis in human EJ-28 cells assessed as upregulation of cleaved caspases-9 expression by Western blotting analysis; format: functional, cell-based; settings: time 24-72 hrs
EJ-28 [21] = experiment: Induction of autophagy in human EJ-28 cells assessed as downregulation of mTOR expression at 5 to 12.5 uM incubated for 24 hrs by Western blot analysis; format: functional, cell-based; settings: dose 5-12.5 µM
EJ-28 [22] = experiment: Antimigratory activity in human EJ-28 cells at 1.25 to 10 uM measured for 24 hrs by imaging analysis; format: functional, cell-based; settings: dose 1.25-10 µM
EJ-28 [23] = experiment: Induction of autophagy in human EJ-28 cells assessed as upregulation of AKT expression at 5 to 12.5 uM incubated for 48 to 72 hrs by Western blot analysis; format: functional, cell-based; settings: dose 5-12.5 µM, time 48-72 hrs
EJ-28 [24] = experiment: Induction of apoptosis in human EJ-28 cells assessed as upregulation of Bax expression incubated for 48 to 72 hrs by Western blotting analysis; format: functional, cell-based; settings: time 48-72 hrs
EJ-28 [25] = experiment: Induction of cell cycle arrest in human EJ-28 cells assessed as accumulation of cells at S phase at 10 uM incubated for 48 hrs by propidium iodide staining based flow cytometry (reference value: 30%); format: functional
EJ-28 [26] = experiment: Induction of apoptosis in human EJ-28 cells assessed as upregulation of PARP expression incubated for 24 hrs by Western blotting analysis; format: functional, cell-based
EJ-28 [27] = experiment: Induction of apoptosis in human EJ-28 cells assessed as upregulation of Bcl-2 expression incubated for 24 hrs by Western blotting analysis; format: functional, cell-based
EJ-28 [28] = experiment: Induction of cell cycle arrest in human EJ-28 cells assessed as accumulation of cells at sub-G0/G1 phase at 5 uM incubated for 48 hrs by propidium iodide staining based flow cytometry (reference value: 48%); format: functional
EJ-28 [29] = experiment: Induction of morphological changes in human EJ-28 cells assessed as cell rounding at 7.5 uM incubated for 24 to 72 hrs by microscopic analysis; format: functional, cell-based; settings: time 24-72 hrs
EJ-28 [30] = experiment: Induction of apoptosis in human EJ-28 cells assessed as downregulation of procaspase-7 expression incubated for 24 to 72 hrs by Western blotting analysis; format: functional, cell-based; settings: time 24-72 hrs
[31] = Selectivity index, ratio of IC50 for cytotoxicity against human NHDF cells to IC50 for cytotoxicity against human MCF7 cells; format: toxicity, cell-based; settings: NHDF cells and MCF7 cells, read-out: Ratio IC50
MCF7 [32] = experiment: Antiproliferative activity against human MCF7 cells assessed as reduction in cell viability at 20 uM measured for 72 hrs by MTT assay; format: functional, cell-based
EJ-28 [33] = experiment: Induction of cell cycle arrest in human EJ-28 cells assessed as accumulation of cells at S phase at 2.5 uM incubated for 48 hrs by propidium iodide staining based flow cytometry (reference value: 30%); format: functional
EJ-28 [34] = experiment: Induction of apoptosis in human EJ-28 cells assessed as upregulation of Mcl-1 expression incubated for 24 hrs by Western blotting analysis; format: functional, cell-based
EJ-28 [35] = experiment: Induction of morphological changes in human EJ-28 cells assessed as intracellular vacuolization at 7.5 uM incubated for 24 to 72 hrs by microscopic analysis; format: functional, cell-based; settings: time 24-72 hrs
EJ-28 [36] = experiment: Induction of apoptosis in human EJ-28 cells assessed as upregulation of Bad expression incubated for 48 hrs by Western blotting analysis; format: functional, cell-based
EJ-28 [37] = experiment: Induction of apoptosis in human EJ-28 cells incubated for 24 to 72 hrs by AnnexinV-FITC/propidium iodide staining based flow cytometry analysis; format: functional, cell-based; settings: dose 1.25-10 µM, time 24-72 hrs

SMILES: O=[N+]([O-])c1cccc(/C=C/c2cc(-c3cc(Cl)ccc3O)n(-c3ccccc3)n2)c1
- Activity (EJ-28 [1]): Active
- Activity (EJ-28 [2]): Active
- Activity (A549): Active
- Activity (EJ-28 [3]): 17%
- Ratio IC50 [4]: 2.6
- Activity (EJ-28 [5]): Active
- IC50 at 72 h [6]: 39.7 µM
- Activity (EJ-28 [7]): Active
- Activity (EJ-28 [8]): Active
- Activity (EJ-28 [9]): Dose-Dependent Effect
- IC50 (SW-620 [10]): 10 µM
- Activity (EJ-28 [11]): Active
- Activity [12]: Non-Toxic
- Activity [13]: Non-Toxic
- selectivity ratio [14]: 2.6
- IC50 (MCF7 [15]): 8.8 µM
- Activity (SW-620 [16]): Active
- IC50 (EJ-28 [17]): 2.8 µM
- IC50 (HT-1080): 13 µM
- Activity (EJ-28 [18]): inactive
- Activity (EJ-28 [19]): Active
- Activity (EJ-28 [20]): Dose-Dependent Effect
- Activity (EJ-28 [21]): Active
- inhibition (EJ-28 [22]): Active
- Activity (EJ-28 [23]): Active
- Activity (EJ-28 [24]): Active
- Activity (EJ-28 [25]): 23%
- Activity (EJ-28 [26]): Active
- Activity (EJ-28 [27]): Active
- Activity (EJ-28 [28]): 58%
- Activity (EJ-28 [29]): Active
- Activity (EJ-28 [30]): Active
- selectivity ratio [31]: 2.6
- Activity (MCF7 [32]): Active
- Activity (EJ-28 [33]): 16%
- Activity (EJ-28 [34]): Active
- Activity (EJ-28 [35]): Active
- Activity (EJ-28 [36]): Active
- Activity (EJ-28 [37]): Dose-Dependent Effect
